Paper PMC4331650 (Biochimica et Biophysica Acta, 2014)
Positions count from the first letter of the chain named.

Columns and labels:
[1] = target: T1, F256A CLC-K1 (Rattus norvegicus, UniProt Q06393, F256A); assay: NFA effect on F256A CLC-K1 without barttin, voltage clamp in Xenopus oocytes; type: cell-based; settings: expressed without barttin
T1 sequence (Q06393 1-687 F256A): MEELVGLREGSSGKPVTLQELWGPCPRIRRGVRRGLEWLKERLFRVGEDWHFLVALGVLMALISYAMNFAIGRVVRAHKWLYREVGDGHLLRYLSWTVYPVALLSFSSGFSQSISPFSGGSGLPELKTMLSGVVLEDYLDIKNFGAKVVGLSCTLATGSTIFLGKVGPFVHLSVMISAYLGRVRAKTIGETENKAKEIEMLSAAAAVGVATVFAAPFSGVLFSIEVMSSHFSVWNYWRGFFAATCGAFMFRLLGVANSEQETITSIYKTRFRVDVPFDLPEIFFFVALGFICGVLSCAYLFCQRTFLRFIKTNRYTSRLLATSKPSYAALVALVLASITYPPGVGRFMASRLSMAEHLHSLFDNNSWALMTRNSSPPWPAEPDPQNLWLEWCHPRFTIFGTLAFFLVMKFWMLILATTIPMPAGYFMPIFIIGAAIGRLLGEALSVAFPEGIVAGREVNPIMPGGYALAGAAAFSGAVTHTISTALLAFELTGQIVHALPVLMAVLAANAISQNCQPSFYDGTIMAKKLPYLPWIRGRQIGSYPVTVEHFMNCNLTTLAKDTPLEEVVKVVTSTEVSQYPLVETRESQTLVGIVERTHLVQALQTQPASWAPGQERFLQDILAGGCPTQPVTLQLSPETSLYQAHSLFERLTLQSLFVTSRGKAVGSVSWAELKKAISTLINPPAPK

[2] = target: T2, CLC-K1 without barttin (Rattus norvegicus, UniProt Q06393); assay: NFA effect on WT CLC-K1 without barttin, voltage clamp in Xenopus oocytes; type: cell-based
T2 sequence (Q06393 1-687): T1 sequence (Q06393 1-687 F256A) with A256F

[3] = target: T3, CLC-K1/barttin (Rattus norvegicus, UniProt Q06393); assay: NFA effect on WT CLC-K1/barttin, voltage clamp in Xenopus oocytes; type: cell-based
T3 sequence (Q06393 1-687): T1 sequence (Q06393 1-687 F256A) with A256F
T3 sequence (Q8WZ55 1-320 Y98A partner): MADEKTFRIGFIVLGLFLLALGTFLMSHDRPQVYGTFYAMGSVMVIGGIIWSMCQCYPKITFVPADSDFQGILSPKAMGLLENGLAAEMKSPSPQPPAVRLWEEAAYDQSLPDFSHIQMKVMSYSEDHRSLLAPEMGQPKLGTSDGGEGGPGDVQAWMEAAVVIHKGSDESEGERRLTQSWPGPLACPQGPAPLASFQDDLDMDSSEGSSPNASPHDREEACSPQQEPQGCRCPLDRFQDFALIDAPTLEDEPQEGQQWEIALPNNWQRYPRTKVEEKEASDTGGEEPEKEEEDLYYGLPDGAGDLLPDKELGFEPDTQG

[4] = target: T4, F256A CLC-Ka (Homo sapiens, UniProt P51800, F256A); type: cell-based; settings: 200 μM NFA, 60 mV
T4 sequence (P51800 1-687 F256A): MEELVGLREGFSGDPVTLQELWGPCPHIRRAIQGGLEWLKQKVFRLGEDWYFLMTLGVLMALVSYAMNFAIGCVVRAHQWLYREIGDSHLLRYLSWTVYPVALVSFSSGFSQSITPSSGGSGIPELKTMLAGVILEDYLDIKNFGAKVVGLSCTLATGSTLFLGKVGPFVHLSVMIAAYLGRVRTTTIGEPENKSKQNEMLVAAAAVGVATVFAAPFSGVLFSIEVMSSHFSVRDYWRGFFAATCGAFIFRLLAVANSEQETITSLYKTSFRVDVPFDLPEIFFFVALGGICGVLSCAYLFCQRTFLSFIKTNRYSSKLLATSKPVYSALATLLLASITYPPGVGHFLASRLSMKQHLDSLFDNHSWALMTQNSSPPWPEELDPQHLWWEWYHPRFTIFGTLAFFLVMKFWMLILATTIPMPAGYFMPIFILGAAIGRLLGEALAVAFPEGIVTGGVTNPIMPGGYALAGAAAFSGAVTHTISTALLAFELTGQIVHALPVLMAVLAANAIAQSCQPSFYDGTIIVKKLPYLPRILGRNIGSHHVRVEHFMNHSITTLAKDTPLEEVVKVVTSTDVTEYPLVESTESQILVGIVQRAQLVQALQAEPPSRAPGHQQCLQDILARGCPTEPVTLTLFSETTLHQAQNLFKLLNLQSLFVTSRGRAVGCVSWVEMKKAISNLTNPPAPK
T4 sequence (Q8WZ55 1-320 Y98A partner): T3 sequence (Q8WZ55 1-320 Y98A partner)

[5] = target: T4, F256A CLC-Ka; type: cell-based; settings: 200 μM NFA
[6] = system: rat CLC-K1; settings: all concentrations tested; cited from earlier work

effect of NFA on currents [1]: no potentiation
currents relative to control conditions ([2]; 10 μM NFA): about 80%
currents relative to control conditions ([2]; 200 μM NFA): ~45%
currents relative to control conditions ([3]; 10 μM NFA): about 80%
currents relative to control conditions ([3]; 200 μM NFA): ~45%
average current increase ([4]; SD, n = 5 patches): 39 +/− 13
single channel current in NFA (average) ([4]; n = 3): 1.75 ± 0.10 pA
distance of Gaussian components of the amplitude histogram in NFA ([4]; patch of Fig. 4): 1.8 pA
increase of mean current in the patch ([4]; the single patch shown in Fig. 4): about 53 fold
open probability after potentiation by NFA ([5]; judged from variance–mean plots without curvature): below 0.5
effect on single channel conductance ([5]; −100 mV and 60 mV, noise analysis): does not change significantly
SMILES: O=C(O)c1cccnc1Nc1cccc(C(F)(F)F)c1 [NFA, niflumic acid]
effect on rat CLC-K1 [6]: blocked
